≈ marks a conversion by molar mass, not a printed value. Where two headings read alike, the source gives them in different places.
How the values were obtained:
Assay in all cases: Minimum inhibitory concentration, conventional tube dilution method
Assay type in all cases: cell-based
[1] = test system: Staph. aureus; conditions: Staphylococcus aureus; gram-positive; tube dilution, 37 degrees, 24 hours; between 1 and 6 strains; mg/100 cc; decimal comma; read-out: Minimal Inhibitory Concentration, Staph. aureus
Excerpt: (§1) The activity of some of the new nitrofuryl quinoline derivatives of the present invention is exemplified in Table 1 against a gram-positive (Staph. aureus), a gram-negative (Salmonella) bacterium and a fungus (Candida albicans). Table 1 indicates the minimum inhibitory concentration of the compound under reference in mg/100 cc required in order to inhibit the growth between 1 and 6 strains of each type. The measurements have been carried out by the conventional tube dilution method at 37 degrees after 24 hours.

[2] = test system: Candida albicans; conditions: fungus, tube dilution, 37 degrees, 24 hours, between 1 and 6 strains, mg/100 cc, decimal comma, read-out: Minimal Inhibitory Concentration, Cand. Alb.
Excerpt: as §1

[3] = test system: Salmonella; conditions: read-out: Minimal Inhibitory Concentration, Salm.
Excerpt: as §1

[4] = gram-negative, tube dilution, 37 degrees, 24 hours, between 1 and 6 strains, mg/100 cc, decimal comma

SMILES | MIC [1] [µg/mL] | MIC [2] [µg/mL] | MIC [3, 4] [µg/mL] | MIC ([3]; 24 h) [µg/mL]
CCc1cc(-c2ccc([N+](=O)[O-])o2)c2ccc(OC)cc2n1 [C2 H5 H 5NF H H OCH3 H] | 0.01 to 0.5 (≈ 0.0335 to 1.68 µM) | 10 (≈ 33.5 µM) | 25 (≈ 83.8 µM) | –
CCc1cc(-c2ccc([N+](=O)[O-])o2)c2ccc(O)cc2n1 [C2 H5 H 5NF H H OH H] | 0.1 to 0.5 (≈ 0.352 to 1.76 µM) | 50 (≈ 176 µM) | 5 (≈ 17.6 µM) | –
CCc1cc(-c2ccc([N+](=O)[O-])o2)c2ccc(C)cc2n1 [C2 H5 H NF H H CH3 H] | 5 (≈ 17.7 µM) | > 50 | > 50 | –
CCc1cc(-c2ccc([N+](=O)[O-])o2)c2ccccc2n1 [C2 H5 H NF H H H H, 2-ethyl-4-[2'-(5'-nitrofuryl)]quinoline] | 0.1 (≈ 0.373 µM) | 5 (≈ 18.6 µM) | > 50 | –
CCCc1cc(-c2ccc([N+](=O)[O-])o2)c2cc(C)ccc2n1 [C3 H7 H NF H CH3 H H] | 1 (≈ 3.37 µM) | 5 to 10 (≈ 16.9 to 33.7 µM) | – | > 50
CCCc1cc(-c2ccc([N+](=O)[O-])o2)c2ccc(C)cc2n1 [C3 H7 H NF H H CH 3 H] | 5 (≈ 16.9 µM) | > 50 | > 50 | –
Cc1ccc2nc(C(Br)(Br)Br)cc(-c3ccc([N+](=O)[O-])o3)c2c1 [CBr3 H NF H CH3 H H, 2-tribromomethyl-4-[2'-(5'-nitrofuryl)]-6-methyl quinoline] | 1 (≈ 1.98 µM) | > 50 | > 25 | –
O=[N+]([O-])c1ccc(-c2cc(C(Br)(Br)Br)nc3ccccc23)o1 [CBr3 H NF H H H H, 2-tribromomethyl-4-[2'-(5'-nitrofuryl)]quinoline] | 0.5 (≈ 1.02 µM) | 30 to 50 (≈ 61.1 to 102 µM) | 10 (≈ 20.4 µM) | –
O=[N+]([O-])c1ccc(-c2cc(CO)nc3ccccc23)o1 [CH2 OH H NF H H H H, 2-Hydroxymethyl-4-[2'-(5'-nitrofuryl)]quinoline] | 0.1 (≈ 0.37 µM) | 5 (≈ 18.5 µM) | 5 to 10 (≈ 18.5 to 37 µM) | –
CCCCOc1ccc2c(-c3ccc([N+](=O)[O-])o3)cc(C)nc2c1 [CH3 H 5NF H H OC4 H9 H, 2-methyl-4-[2'-(5'-nitrofuryl)]-7-n-butoxy quinoline] | 0.5 (≈ 1.53 µM) | > 50 | – | –
Cc1cc(-c2ccc([N+](=O)[O-])o2)c2c(C)ccc(N)c2n1 [CH3 H NF CH3 H H NH2] | 5 (≈ 17.6 µM) | > 50 | > 50 | –
CCc1ccc2nc(C)cc(-c3ccc([N+](=O)[O-])o3)c2c1 [CH3 H NF H C2 H5 H H, 2-methyl-4-[2'-(5'-nitrofuryl)]-6-ethyl quinoline] | 0.1 (≈ 0.354 µM) | 25 (≈ 88.6 µM) | 25 (≈ 88.6 µM) | –
Cc1cc(C)c2nc(C)cc(-c3ccc([N+](=O)[O-])o3)c2c1 [CH3 H NF H CH3 H CH3, 2,6,8-trimethyl-4-[2'-(5'-nitrofuryl)]quinoline] | 0.05 to 0.1 (≈ 0.177 to 0.354 µM) | > 50 | > 50 | –
Cc1ccc2nc(C)cc(-c3ccc([N+](=O)[O-])o3)c2c1 [CH3 H NF H CH3 H H, 2-methyl-4-[2'-(5'-nitrofuryl)]-6-methyl quinoline] | 0.1 (≈ 0.373 µM) | 5 (≈ 18.6 µM) | 5 (≈ 18.6 µM) | –
Cc1cc(-c2ccc([N+](=O)[O-])o2)c2cc(C(=O)O)c(O)cc2n1 [CH3 H NF H COOH OH H] | 10 (≈ 31.8 µM) | > 50 | > 50 | –
Cc1ccc2c(-c3ccc([N+](=O)[O-])o3)cc(C)nc2c1 [CH3 H NF H H CH3 H, 2,7-dimethyl-4-[2'-(5'-nitrofuryl)]quinoline] | 0.05 to 0.1 (≈ 0.186 to 0.373 µM) | 3 (≈ 11.2 µM) | 2 to 5 (≈ 7.46 to 18.6 µM) | –
Cc1cc(-c2ccc([N+](=O)[O-])o2)c2ccc(Cl)cc2n1 [CH3 H NF H H Cl H, 2-methyl-4-[2'-(5'-nitrofuryl)]-7-chloro quinoline] | 0.1 (≈ 0.346 µM) | 25 (≈ 86.6 µM) | 0.5 (≈ 1.73 µM) | –
Cc1cc(-c2ccc([N+](=O)[O-])o2)c2cccc(C)c2n1 [CH3 H NF H H H CH3, 2,8-dimethyl-4-[2'-(5'-nitrofuryl)]quinoline] | 0.3 (≈ 1.12 µM) | 5 (≈ 18.6 µM) | > 50 | –
Cc1cc(-c2ccc([N+](=O)[O-])o2)c2ccccc2n1 [CH3 H NF H H H H, 2-methyl-4-[2'-(5'-nitrofuryl)] quinoline] | 0.1 to 1 (≈ 0.393 to 3.93 µM) | 5 (≈ 19.7 µM) | 5 (≈ 19.7 µM) | –
Cc1cc(-c2ccc([N+](=O)[O-])o2)c2ccc(NC(=O)C(F)(F)F)c(C)c2n1 [CH3 H NF H H NHCOCF3 CH3] | 0.5 (≈ 1.32 µM) | > 50 | > 50 | –
CC(=O)Nc1ccc2c(-c3ccc([N+](=O)[O-])o3)cc(C)nc2c1C [CH3 H NF H H NHCOCH3 CH3] | 1 (≈ 3.07 µM) | > 50 | > 50 | –
CCOc1ccc2c(-c3ccc([N+](=O)[O-])o3)cc(C)nc2c1 [CH3 H NF H H OC2 H5 H, 2-methyl-4-[2'-(5'-nitrofuryl)]-7-ethoxy quinoline] | 0.1 (≈ 0.335 µM) | 25 (≈ 83.8 µM) | 5 (≈ 16.8 µM) | –
